Read-outs that look alike come from different tables or passages of the source.

Test [1] deals with T1, USP 21 (h) (Homo sapiens, UniProt Q9UK80).
T1 sequence (Q9UK80 1-565): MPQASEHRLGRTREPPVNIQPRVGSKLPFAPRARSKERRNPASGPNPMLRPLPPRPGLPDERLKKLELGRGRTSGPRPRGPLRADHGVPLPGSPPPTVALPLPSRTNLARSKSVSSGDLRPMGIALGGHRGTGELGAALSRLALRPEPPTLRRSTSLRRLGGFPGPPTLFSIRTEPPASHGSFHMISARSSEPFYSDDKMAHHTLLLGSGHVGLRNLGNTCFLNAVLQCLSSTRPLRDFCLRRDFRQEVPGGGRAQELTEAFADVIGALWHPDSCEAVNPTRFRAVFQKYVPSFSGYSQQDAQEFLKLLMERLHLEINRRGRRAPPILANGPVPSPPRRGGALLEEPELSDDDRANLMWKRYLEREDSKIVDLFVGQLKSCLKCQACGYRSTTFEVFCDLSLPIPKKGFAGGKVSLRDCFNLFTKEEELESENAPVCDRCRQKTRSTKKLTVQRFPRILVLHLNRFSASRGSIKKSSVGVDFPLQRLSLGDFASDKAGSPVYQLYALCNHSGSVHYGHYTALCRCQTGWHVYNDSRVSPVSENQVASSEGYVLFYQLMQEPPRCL
As to conditions: reference compound; LanthaScreen DUB substrate 10 nM, 15 min/RT; cited from earlier work.

The target in test [2] is T2, USP 7 (h) (Homo sapiens, UniProt Q93009). Nature of the test: Epigenetic enzyme assay, Ubiquitin modifying enzymes. The format is biochemical. The note with it: Table 10; read-out: Reference IC50.
T2 sequence (Q93009 whole entry): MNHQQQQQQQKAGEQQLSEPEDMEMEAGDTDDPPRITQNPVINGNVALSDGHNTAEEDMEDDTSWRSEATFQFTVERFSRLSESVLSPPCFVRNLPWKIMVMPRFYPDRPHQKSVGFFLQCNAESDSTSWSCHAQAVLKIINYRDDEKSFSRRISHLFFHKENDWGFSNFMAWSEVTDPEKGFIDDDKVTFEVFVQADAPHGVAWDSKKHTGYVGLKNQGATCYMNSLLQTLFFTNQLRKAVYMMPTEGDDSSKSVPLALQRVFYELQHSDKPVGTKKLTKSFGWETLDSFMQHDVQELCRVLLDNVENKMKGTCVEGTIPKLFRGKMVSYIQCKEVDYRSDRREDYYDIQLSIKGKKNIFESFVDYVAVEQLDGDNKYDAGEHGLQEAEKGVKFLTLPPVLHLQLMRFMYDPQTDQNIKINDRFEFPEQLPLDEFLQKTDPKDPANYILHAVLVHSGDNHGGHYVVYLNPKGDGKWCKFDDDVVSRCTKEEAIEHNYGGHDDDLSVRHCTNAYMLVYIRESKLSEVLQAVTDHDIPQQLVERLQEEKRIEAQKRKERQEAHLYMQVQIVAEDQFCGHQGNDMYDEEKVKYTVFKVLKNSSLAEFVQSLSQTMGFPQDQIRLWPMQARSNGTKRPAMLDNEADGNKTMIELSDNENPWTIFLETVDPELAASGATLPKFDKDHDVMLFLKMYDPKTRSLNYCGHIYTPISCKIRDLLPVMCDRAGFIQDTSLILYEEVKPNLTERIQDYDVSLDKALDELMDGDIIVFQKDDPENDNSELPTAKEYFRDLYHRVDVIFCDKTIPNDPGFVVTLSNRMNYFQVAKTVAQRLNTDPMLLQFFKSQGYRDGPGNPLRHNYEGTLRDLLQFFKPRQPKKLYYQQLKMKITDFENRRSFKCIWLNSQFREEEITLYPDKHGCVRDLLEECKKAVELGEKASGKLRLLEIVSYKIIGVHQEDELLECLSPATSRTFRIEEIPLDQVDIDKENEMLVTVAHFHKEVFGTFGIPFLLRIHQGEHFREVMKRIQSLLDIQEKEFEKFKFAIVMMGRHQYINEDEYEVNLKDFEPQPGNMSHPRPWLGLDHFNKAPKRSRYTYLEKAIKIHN
In test [3] the target is T3, USP 14 (h) (Homo sapiens, UniProt P54578). Described as above. The note with it: Table 10; read-out: Reference IC50. It is filed as biochemical.
T3 sequence (P54578 whole entry): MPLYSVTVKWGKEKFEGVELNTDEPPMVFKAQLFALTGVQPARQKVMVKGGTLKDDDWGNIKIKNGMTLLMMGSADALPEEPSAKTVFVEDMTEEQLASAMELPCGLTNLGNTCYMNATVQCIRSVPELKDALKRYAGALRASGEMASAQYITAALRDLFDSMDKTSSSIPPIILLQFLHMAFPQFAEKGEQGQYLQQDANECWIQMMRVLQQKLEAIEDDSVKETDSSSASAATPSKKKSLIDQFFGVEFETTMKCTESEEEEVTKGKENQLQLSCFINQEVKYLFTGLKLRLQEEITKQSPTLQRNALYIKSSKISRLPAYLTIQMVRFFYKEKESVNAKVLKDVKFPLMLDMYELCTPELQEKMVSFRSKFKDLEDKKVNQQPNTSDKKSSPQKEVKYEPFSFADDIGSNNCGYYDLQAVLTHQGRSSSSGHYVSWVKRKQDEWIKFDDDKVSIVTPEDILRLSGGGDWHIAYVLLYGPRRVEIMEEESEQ
The target in test [4] is T4, BAP1 (h) (Homo sapiens, UniProt Q92560).
T4 sequence (Q92560 1-729): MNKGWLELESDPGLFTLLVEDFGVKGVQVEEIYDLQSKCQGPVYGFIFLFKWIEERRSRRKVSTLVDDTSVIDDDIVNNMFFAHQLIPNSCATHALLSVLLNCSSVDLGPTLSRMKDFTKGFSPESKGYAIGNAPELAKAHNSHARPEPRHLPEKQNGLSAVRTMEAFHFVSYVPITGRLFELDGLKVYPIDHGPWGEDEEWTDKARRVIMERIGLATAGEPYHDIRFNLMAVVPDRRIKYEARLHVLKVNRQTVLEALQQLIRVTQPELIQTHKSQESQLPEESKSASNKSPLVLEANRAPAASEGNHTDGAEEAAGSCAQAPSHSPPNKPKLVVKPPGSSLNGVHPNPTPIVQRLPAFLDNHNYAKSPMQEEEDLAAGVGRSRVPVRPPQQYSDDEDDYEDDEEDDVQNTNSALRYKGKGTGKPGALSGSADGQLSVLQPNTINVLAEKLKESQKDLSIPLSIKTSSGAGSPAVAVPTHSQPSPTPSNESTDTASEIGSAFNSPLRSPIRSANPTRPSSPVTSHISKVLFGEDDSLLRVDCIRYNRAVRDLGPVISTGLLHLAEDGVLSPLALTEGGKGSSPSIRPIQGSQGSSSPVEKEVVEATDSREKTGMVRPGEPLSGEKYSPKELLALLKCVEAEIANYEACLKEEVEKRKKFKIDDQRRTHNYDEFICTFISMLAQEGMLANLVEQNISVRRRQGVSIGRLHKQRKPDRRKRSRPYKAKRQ
The description is as above. It is filed as biochemical. As to conditions: Table 10; read-out: Reference IC50.

The target of test [5] is T2, USP 7 (h). As to conditions: reference compound; LanthaScreen DUB substrate 10 nM, 60 min/RT; cited from earlier work.
Test [6] addresses T1, USP 21 (h). Nature of the test: Epigenetic enzyme assay, Ubiquitin modifying enzymes. The format is biochemical. The note with it: Table 10; read-out: Reference IC50.
Test [7] addresses T3, USP 14 (h). As to conditions: reference compound; LanthaScreen DUB substrate 10 nM, 240 min/RT; cited from earlier work. (In general: Time-resolved FRET reads energy transfer from a long-lived donor to a nearby acceptor.)
In the next test the target is USP 10 (h) (Homo sapiens, UniProt Q14694). As to conditions: reference compound; LanthaScreen DUB substrate 10 nM, 60 min/22° C.; cited from earlier work.
Sequence of USP 10 (h) (Q14694 whole entry): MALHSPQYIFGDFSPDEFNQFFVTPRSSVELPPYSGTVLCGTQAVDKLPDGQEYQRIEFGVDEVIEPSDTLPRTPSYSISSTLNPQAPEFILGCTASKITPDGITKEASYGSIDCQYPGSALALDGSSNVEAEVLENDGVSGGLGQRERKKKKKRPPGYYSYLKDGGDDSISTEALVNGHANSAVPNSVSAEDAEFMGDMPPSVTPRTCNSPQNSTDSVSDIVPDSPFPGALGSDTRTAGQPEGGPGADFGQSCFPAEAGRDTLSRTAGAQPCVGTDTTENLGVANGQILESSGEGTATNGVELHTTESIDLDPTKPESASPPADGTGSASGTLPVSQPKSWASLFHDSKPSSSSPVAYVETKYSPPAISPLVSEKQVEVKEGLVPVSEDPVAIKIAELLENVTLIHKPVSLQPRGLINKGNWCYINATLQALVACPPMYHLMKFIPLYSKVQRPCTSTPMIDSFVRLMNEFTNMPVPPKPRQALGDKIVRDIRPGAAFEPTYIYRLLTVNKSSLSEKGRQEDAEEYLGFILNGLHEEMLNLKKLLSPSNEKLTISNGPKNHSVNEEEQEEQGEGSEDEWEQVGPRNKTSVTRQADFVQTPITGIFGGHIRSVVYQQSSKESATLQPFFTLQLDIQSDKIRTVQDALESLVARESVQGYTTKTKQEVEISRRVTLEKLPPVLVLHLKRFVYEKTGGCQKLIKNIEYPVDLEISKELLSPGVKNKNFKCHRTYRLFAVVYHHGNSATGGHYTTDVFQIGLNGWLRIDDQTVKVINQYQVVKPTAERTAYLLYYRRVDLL
The target of test [8] is T4, BAP1 (h). As to conditions: reference compound; LanthaScreen DUB substrate 20 nM, 180 min/RT; cited from earlier work.

By IC50 is commonly meant the concentration that gives 50% inhibition. Take Ubiquitin Aldehyde: the half-inhibitory concentration (IC50) at USP 21 (h) [1] was 170 nM; at USP 7 (h) [2] it was 110 nM; at USP 14 (h) [3], 4 nM; at BAP1 (h) [4] it was 230 nM; on USP 7 (h) [5] it was 110 nM; on USP 21 (h) [6] it was 170 nM. The half-maximal inhibitory concentration (IC50) at USP 14 (h) [7] was 4 nM; at USP 10 (h), 230 nM; on BAP1 (h) [8] it was 230 nM.
